Patent publication US20080090863A1, “Pyridine Derivatives and Their Use as Medicaments for Treating Diseases Related to Mch Receptor” (TAISHO PHARMACEUTICAL CO., LTD., priority 2004, published 2008)
Structures can show the parent of a compound that is named as a salt. Where two headings read alike, the source gives them in different places.

Target: MCH receptor (Homo sapiens, UniProt Q99705)
Assay: High Throughput Functional Screening: FLIPR/FDSS6000 intracellular Ca2+ assay, antagonist activity against MCH
Assay type: cell-based
Set-up: class (percent of control at 10^−7 M or IC50): scale not given here
Details: FLIPR/FDSS, [Ca2+]i evoked by 50 nM MCH
Excerpt: Subsequently, a functional based assay was used to confirm the lead hits, referred to as FLIPR™ (the Fluorometric Imaging Plate Reader) and FDSS6000™ (Functional Drug Screening System). This assay utilized a non-endogenous, constitutively active version of the MCH receptor.
The FLIPR and FDSS assays are able to detect intracellular Ca^2+ concentration in cells, which can be utilized to assess receptor activation and determine whether a candidate compound is an, for example, antagonist, inverse agonist or agonist to a Gq-coupled receptor. The concentration of free Ca^2+ in the cytosol of any cell is extremely low, whereas its concentration in the extracellular fluid and endoplasmic reticulum (ER) is very high. Thus, there is a large gradient tending to drive Ca^2+ into the cytosol across both the plasma membrane and ER. The FLIPR™ and FDSS6000™ systems (Molecular Devices Corporation, HAMAMATSU Photonics K.K.) are designed to perform functional cell-based assays, such as the measurement of intracellular calcium for high-throughput screening. The measurement of fluorescent is associated with calcium release upon activation of the Gq-coupled receptors.
Fluorometric Imaging Plate Reader system was used to allow for rapid, kinetic measurements of intracellular fluorescence in 96 well microplates (or 384 well microplates). Simultaneous measurements of fluorescence in all wells can be made by FLIPR or FDSS6000™ every second with high sensitivity and precision. These systems are ideal for measuring cell-based functional assays such as monitoring the intracellular calcium fluxes that occur within seconds after activation of the Gq coupled receptor.
Briefly, the cells are seeded into 96 well at 5.5×10^4 cells/well with complete culture media (Dulbecco's Modified Eagle Medium with 10% fetal bovine serum, 2 mM L-glutamine, 1 mM sodium pyruvate and 0.5 mg/mL G418, pH 7.4) for the assay next day. On the day of assay, the media is removed and the cells are incubated with 100 μl of loading buffer (4 μM Fluo4-AM in complete culture media containing 2.5 mM Probenicid, 0.5 mg/ml and 0.2% bovine serum albumin) in 5% CO2 incubator at 37° C. for 1 hr. The loading buffer is removed, and the cells are washed with wash buffer (Hank's Balanced Salt Solution containing 2.5 mM Probenicid, 20 mM HEPES, 0.5 mg/mL and 0.2% bovine serum albumin, pH 7.4). One hundred fifty μl of wash buffer containing various concentrations of test compound is added to the cells, and the cells are incubated in 5% CO2 incubator at 37° C. for 30 min. Fifty μl of wash buffer containing various concentration of MCH are added to each well, and transient changes in [Ca^2+]i evoked by MCH are monitored using the FLIPR™ or FDSS in 96 well plates at Ex. 488 nm and Em. 530 nm for 290 second. When antagonist activity of compound is tested, 50 nM of MCH is used.
Use of FLIPR™ and FDSS6000™ can be accomplished by following manufacturer's instruction (Molecular Device Corporation and HAMAMATSU Photonics K.K.).

[1] = class by percent of control at 10^−7 M or IC50, read-out: class (percent of control at 10^−7 M or IC50)
[2] = class by percent of control at 10^−7 M or IC50

| IC50 [1] [nM] | class (percent of control at 10^−7 M or IC50) [2] | Compound | other results |
| --- | --- | --- | --- |
| < 50 | – | Cc1cc(N(C)C)cc(N[C@H]2CC[C@@H](NC(=O)c3ccc(Cl)cc3)CC2)n1 [Example 185, 4-chloro-N-(cis-4-{[4-(dimethylamino)-6-methylpyridin-2-yl]amino}cyclohexyl)benzamide] | – |
| < 50 | – | Cc1cnc(N[C@H]2CC[C@@H](NC(=O)c3cccc(Cl)c3)CC2)cc1N(C)C [Example 10, 3-Chloro-N-(cis-4-{[4-(dimethylamino)-5-methylpyridin-2-yl]amino}cyclohexyl)benzamide hydrochloride] | – |
| < 50 | – | Cc1cc(N(C)C)cc(N[C@H]2CC[C@@H](NC(=O)c3cc(F)c(F)c(F)c3)CC2)n1 [Example 29, N-(cis-4-{[4-(Dimethylamino)-6-methylpyridin-2-yl]amino}cyclohexyl)-3,4,5-trifluorobenzamide hydrochloride] | – |
| < 50 | – | Cc1cc(N(C)C)cc(N[C@H]2CC[C@@H](NC(=O)COc3ccc(Cl)cc3)CC2)n1 [Example 147, 2-(4-chlorophenoxy)-N-(cis-4-{[4-(dimethylamino)-6-methylpyridin-2-yl]amino}cyclohexyl)acetamide] | – |
| < 50 | – | Cc1cnc(N[C@H]2CC[C@@H](NC(=O)c3cc(F)c(F)c(F)c3)CC2)cc1N(C)C [Example 5, N-(cis-4-{[4-(Dimethylamino)-5-methylpyridin-2-yl]amino}cyclohexyl)-3,4,5-trifluorobenzamide hydrochloride] | IC50 (non-endogenous constitutively active MCH receptor, read-out: IC50): 1.9 nM |
| < 50 | – | Cc1cnc(N[C@H]2CC[C@@H](NC(=O)c3ccc(F)c(F)c3)CC2)cc1N(C)C [Example 8, N-(cis-4-{[4-(Dimethylamino)-5-methylpyridin-2-yl]amino}cyclohexyl)-3,4-difluorobenzamide hydrochloride] | – |
| < 50 | – | Cc1cnc(N[C@H]2CC[C@@H](NC(=O)c3ccc(F)c(C(F)(F)F)c3)CC2)cc1N(C)C [Example 13, N-(cis-4-{[4-(Dimethylamino)-5-methylpyridin-2-yl]amino}cyclohexyl)-4-fluoro-3-(trifluoromethyl)benzamide hydrochloride] | – |
| < 50 | – | Cc1cnc(N[C@H]2CC[C@@H](NC(=O)c3ccc(Cl)c(Cl)c3)CC2)cc1N(C)C [Example 9, 3,4-Dichloro-N-(cis-4-{[4-(Dimethylamino)-5-methylpyridin-2-yl]amino}cyclohexyl)benzamide hydrochloride] | – |
| – | 2 | Cc1cc(N(C)C)cc(N[C@H]2CC[C@@H](NC(=O)c3cccnc3Oc3ccccc3)CC2)n1 [Example 203, N-(cis-4-{[4-(dimethylamino)-6-methylpyridin-2-yl]amino}cyclohexyl)-2-phenoxynicotinamide] | – |
| – | 2 | Cc1ccc(N[C@H]2CC[C@@H](NC(=O)c3ccc(F)c(Cl)c3)CC2)nc1.Cl [Example 2, 3-Chloro-4-fluoro-N-{cis-4-[(5-methylpyridin-2-yl)amino]cyclohexyl}benzamide hydrochloride] | – |
| – | 2 | Cc1cnc(N[C@H]2CC[C@@H](NC(=S)Nc3ccc(F)c(Cl)c3)CC2)cc1N(C)C.Cl [Example 26, N-(3-Chloro-4-fluorophenyl)-N′-(cis-4-{[4-(dimethylamino)-5-methylpyridin-2-yl]amino}-cyclohexyl)thiourea hydrochloride] | – |
| – | 2 | Cc1cc(N(C)C)cc(N[C@H]2CC[C@@H](NC(=O)c3cccc(C(F)(F)F)c3)CC2)n1 [Example 177, N-(cis-4-{[4-(dimethylamino)-6-methylpyridin-2-yl]amino}cyclohexyl)-3-(trifluoromethyl)benzamide] | – |
| < 50 | – | Cc1cnc(N[C@H]2CC[C@@H](NC(=O)c3cccc(OC(F)(F)F)c3)CC2)cc1N(C)C [Example 12, N-(cis-4-{[4-(Dimethylamino)-5-methylpyridin-2-yl]amino}cyclohexyl)-3-(trifluoromethoxy)-benzamide hydrochloride] | – |
| – | 2 | CCN(C)c1cc(N[C@H]2CC[C@@H](NC(=O)c3ccc(F)c(Cl)c3)CC2)ncc1C.Cl [Example 19, 3-Chloro-N-[cis-4-({4-[ethyl(methyl)amino]-5-methylpyridin-2-yl}amino)cyclohexyl]-4-fluorobenzamide hydrochloride] | – |
| < 50 | – | Cc1cc(N[C@H]2CC[C@@H](NC(=O)c3ccc(F)c(Cl)c3)CC2)nc2c1CCCC2 [Example 34, 3-Chloro-4-fluoro-N-{cis-4-[(4-methyl-5,6,7,8-tetrahydroquinolin-2-yl)amino]cyclohexyl}benzamide hydrochloride] | – |
| < 50 | – | CN(C)c1ccnc(N[C@H]2CC[C@@H](NC(=O)c3ccc(F)c(Cl)c3)CC2)c1 [Example 36, 3-Chloro-N-(cis-4-{[4-(dimethylamino)pyridin-2-yl]amino}cyclohexyl)-4-fluorobenzamide hydrochloride] | – |
| < 50 | – | Cc1cc(N[C@H]2CC[C@@H](NC(=O)c3ccc(F)c(Cl)c3)CC2)nc2c1CCC2 [Example 33, 3-Chloro-4-fluoro-N-{cis-4-[(4-methyl-6,7-dihydro-5H-cyclopenta[b]pyridin-2-yl)amino]cyclohexyl}benzamide hydrochloride] | – |
| < 50 | – | CNc1cc(N[C@H]2CC[C@@H](NC(=O)c3cc(F)c(F)c(F)c3)CC2)ncc1C [Example 16, 3,4,5-Trifluoro-N-(cis-4-{[5-methyl-4-(methylamino)pyridin-2-yl]amino}cyclohexyl)-benzamide hydrochloride] | – |
| < 50 | – | Cc1cc(N(C)C)cc(N[C@H]2CC[C@@H](NC(=O)c3cccc([N+](=O)[O-])c3)CC2)n1 [Example 190, N-(cis-4-{[4-(dimethylamino)-6-methylpyridin-2-yl]amino}cyclohexyl)-3-nitrobenzamide] | – |
| < 50 | – | CNc1cc(N[C@H]2CC[C@@H](NC(=O)c3ccc(F)c(Cl)c3)CC2)ncc1C [Example 15, 3-Chloro-4-fluoro-N-(cis-4-{[5-methyl-4-(methylamino)pyridin-2-yl]amino}cyclohexyl)-benzamide hydrochloride] | – |
| < 50 | – | Cc1cc(C)nc(N[C@H]2CC[C@@H](NC(=O)c3ccc(F)c(Cl)c3)CC2)c1 [Example 52, 3-Chloro-N-{cis-4-[(4,6-dimethylpyridin-2-yl)amino]cyclohexyl}-4-fluorobenzamide hydrochloride] | – |
| – | 2 | Cc1cccc(N[C@H]2CC[C@@H](NC(=O)c3ccc(F)c(Cl)c3)CC2)n1.Cl [Example 3, 3-Chloro-4-fluoro-N-{cis-4-[(6-methylpyridin-2-yl)amino]cyclohexyl}benzamide hydrochloride] | – |
| – | 2 | Cc1cnc(N[C@H]2CC[C@@H](CNC(=O)c3ccc(F)c(Cl)c3)CC2)cc1N(C)C.Cl [Example 32, 3-Chloro-N-[(cis-4-{[4-(dimethylamino)-5-methylpyridin-2-yl]amino}cyclohexyl)methyl]-4-fluorobenzamide hydrochloride] | – |
| – | 2 | Cc1cc(N(C)C)cc(N[C@H]2CC[C@@H](NC(=O)Cc3cccc4ccccc34)CC2)n1 [Example 168, N-(cis-4-{[4-(dimethylamino)-6-methylpyridin-2-yl]amino}cyclohexyl)-2-(1-naphthyl)acetamide] | – |
| – | 2 | Cc1cnc(N[C@H]2CC[C@@H](NC(=O)c3cc(F)c(F)c(F)c3)CC2)cc1N.Cl [Example 18, N-{cis-4-[(4-Amino-5-methylpyridin-2-yl)amino]cyclohexyl}-3,4,5-trifluorobenzamide hydrochloride] | – |
| < 50 | – | Cc1cc(N(C)C)cc(N[C@H]2CC[C@@H](NC(=O)c3ccc(F)c(F)c3)CC2)n1 [Example 171, N-(cis-4-{[4-(dimethylamino)-6-methylpyridin-2-yl]amino}cyclohexyl)-3,4-difluorobenzamide] | – |
